The numbers were not newly measured in patent publication US10596038B2, “Corneal denervation for treatment of ocular pain” (Journey1, Inc., priority 2009, dated 2020), which cites them from elsewhere.

For the data set the following is noted: after 24 hours.

`COc1cc(CNC(=O)CCCC/C=C/C(C)C)ccc1O` [Capsaicin]: the “detectability in the blood” value is on record as “undetectable”.
